We go through eight molecules from patent publication US10138255B2, “Piperazine derivatives as HIV protease inhibitors” (Merck Sharp & Dohme Corp., priority 2014, dated 2018).

The subject of this experiment is HIV-1 (H9IIIB strain). Kind of experiment: Cell-Based HIV Infection Assay Using a Reporter (MT4-GFP cells). The conditions noted are these: Human immunodeficiency virus 1, inflection point (IP) of viral growth inhibition; MT4-GFP cells infected with HIV-1 H9IIIB; 50% normal human serum; mean of at least two independent experiments; read-out: Cell Based IP (50% NHS). In a few lines:
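Inflection point from a 4-parameter curve of % viral growth inhibition, normalised to DMSO and triple-drug controls, using the 48 h/24 h ratio of GFP-positive cells (R0). MT4-GFP cells pre-infected 24 h with HIV-1 H9IIIB at low MOI; compounds tested in 50% normal human serum, 0.4% DMSO; mean of ≥2 experiments.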
For `CO[C@H](C(C)C)[C@H](c1ccc(F)cc1)[C@H](N)C(=O)Nc1cccc(F)c1CCC1CN[C@@H]2CCCS(=O)(=O)N1C2` (stereo partly drawn) [Example 88, (βR)-N-(2-{2-[(6R)-2,2-dioxido-2-thia-1,7-diazabicyclo[4.3.1]dec-9-yl]ethyl)-3-fluorophenyl)-4-fluoro-β-[(1R)-1-methoxy-2-methylpropyl]-L-phenylalaninamide], the EC50 amounted to 0.091 µM.

For the molecule `COC(=O)N[C@H](C(=O)Nc1cccc(F)c1CC[C@H]1CN[C@@H]2CCCS(=O)(=O)N1C2)[C@@H](c1ccc(F)cc1)[C@H]1CC[C@H](OC)CC1` [Example 117, methyl [(1S)-2-[(2-{2-[(6R,9S)-2,2-dioxido-2-thia-1,7-diazabicyclo[4.3.1]dec-9-yl]ethyl}-3-fluorophenyl)amino]-1-{(R)-(4-fluorophenyl)[(1r,4R)-4-methoxycyclohexyl]methyl}-2-oxoethyl]carbamate], the EC50 was 0.005 µM.

As to `N[C@H](C(=O)Nc1cccc(F)c1CCC1CNC2CCCS(=O)(=O)N1C2)[C@H](CCC1CCCCO1)c1ccc(Cl)cc1` (stereo partly drawn) [Example 151, (βR)-4-chloro-N-{2-[2-(2,2-dioxido-2-thia-1,7-diazabicyclo[4.3.1]dec-9-yl)ethyl]-3-fluorophenyl}-β-[2-(tetrahydro-2H-pyran-2-yl)ethyl]-L-phenylalaninamide], the EC50 stood at 0.023 µM.

Regarding `CO[C@H]1C[C@@H]([C@H](c2ccc(F)cc2)[C@H](N)C(=O)Nc2cccc(F)c2CC[C@H]2CN[C@@H]3CCCS(=O)(=O)N2C3)C1` [Example 106, (βR)-N-(2-{2-[(6R,9S)-2,2-dioxido-2-thia-1,7-diazabicyclo[4.3.1]dec-9-yl]ethyl}-3-fluorophenyl)-4-fluoro-β-[(1s,3S)-3-methoxycyclobutyl]-L-phenylalaninamide], the EC50 turned out to be 0.11 µM.

Consider `COC(=O)N[C@H](C(=O)Nc1cccc(F)c1CC[C@H]1CN[C@@H]2CCCS(=O)(=O)N1C2)[C@@H](c1ccc(Cl)cc1)C1CCC(C(F)(F)F)OC1` (stereo partly drawn) [Example 273, methyl {(1S,2R)-2-(4-chlorophenyl)-1-[(2-{2-[(6R,9S)-2,2-dioxido-2-thia-1,7-diazabicyclo[4.3.1]dec-9-yl]ethyl}-3-fluorophenyl)carbamoyl]-2-[6-(trifluoromethyl)tetrahydro-2H-pyran-3-yl]ethyl}carbamate], for which the EC50 amounted to 0.014 µM.

On to `CC(C)[C@H](c1ccc(Cl)cc1)[C@H](N)C(=O)N[C@H]1CCCC[C@@H]1CC[C@H]1CN[C@@H]2CCCS(=O)(=O)N1C2` [Example 161, (βR)-4-chloro-N-[(1S,2R)-2-{2-[(6R,9S)-2,2-dioxido-2-thia-1,7-diazabicyclo[4.3.1]dec-9-yl]ethyl}cyclohexyl]-β-(1-methylethyl)-L-phenylalaninamide], for which the EC50 was 0.078 µM.

As to `COC(=O)N[C@@H](C(=O)N[C@H]1CCC[C@@H]1CC[C@H]1CN[C@@H]2CCCS(=O)(=O)N1C2)[C@@H](c1ccc(Cl)cc1)C1CCN(C(=O)OC2(C)CC2)CC1` [Example 138, 1-methylcyclopropyl 4-{(1R,2R)-1-(4-chlorophenyl)-3-{[(1S,2R)-2-{2-[(6R,9S)-2,2-dioxido-2-thia-1,7-diazabicyclo[4.3.1]dec-9-yl]ethyl}cyclopentyl]amino}-2-[(methoxycarbonyl)amino]-3-oxopropyl}piperidine-1-carboxylate], the EC50 was found to be 0.49 µM.

For `COC(=O)N[C@H](C(=O)Nc1cccc(F)c1CCC1CNC2CCCS(=O)(=O)N1C2)C(c1ccc(OC)nc1)c1ccc(F)c(F)c1` (stereo in doubt) [Example 68, methyl [(1S,2R)-2-(3,4-difluorophenyl)-1-({2-[2-(2,2-dioxido-2-thia-1,7-diazabicyclo[4.3.1]dec-9-yl)ethyl]-3-fluorophenyl}carbamoyl)-2-(6-methoxypyridin-3-yl)ethyl]carbamate], the EC50 was determined as 0.012 µM.
